These results are taken from ChEMBL document CHEMBL6103565, “Current strategies in design and synthesis of antifungals hybrid and chimeric diazine derivatives” (Bioorg Med Chem, 2025).

Values after ≈ are worked out from the molar mass of the structure shown.

What all share (format): functional
The subject of assay [1] is Candida albicans. Kind of assay: Antifungal activity against Candida albicans assessed as diameter of zone inhibition.
The subject of assay [2] is Candida albicans. The assay can be described thus: Antifungal activity against Candida albicans assessed as zone of inhibition by disc diffusion method. In general terms: In agar diffusion tests the substance spreads into inoculated agar from a disc or well.
Assay [3] deals with Saccharomyces cerevisiae. Kind of assay: Antimicrobial activity against Saccharomyces cerevisiae assessed as zone of inhibition by disc diffusion method.
For assay [4], the system named is Candida albicans. Kind of assay: Antimicrobial activity against Candida albicans ATCC 64124 assessed as reduction in microbial growth by CLSI protocol based micro-broth dilution method.
Assay [5] concerns Syncephalastrum racemosum. The assay can be described thus: Antifungal activity against Syncephalastrum racemosum assessed as zone of inhibition.
Another assay relates to Aspergillus niger. The assay can be described thus: Antifungal activity against Aspergillus niger assessed as inhibition of fungal growth.
A further assay relates to Candida tropicalis. Kind of assay: Antifungal activity against Candida tropicalis assessed as inhibition of fungal growth.
Assay [6] has as its system Candida albicans. The assay can be described thus: Antifungal activity against Candida albicans assessed as zone of inhibition by serial dilution and disc diffusion method.
Assay [7] relates to Saccharomyces cerevisiae. Kind of assay: Antimicrobial activity against Saccharomyces cerevisiae assessed as zone of inhibition.
Assay [8] relates to Candida albicans. The assay can be described thus: Antifungal activity against Candida albicans ATCC 10231.
A further assay has as its system Pichia kudriavzevii. The assay can be described thus: Antifungal activity against Candida krusei ATCC 6258.
The next assay relates to Candida parapsilosis. The assay can be described thus: Antifungal activity against Candida parapsilosis ATCC 22019. To be noted: Lodderomyces parapsilosis.
In the next assay the test system is Nakaseomyces glabratus. The assay can be described thus: Antifungal activity against Candida glabrata ATCC 90030.
The test system of assay [9] is Candida albicans. Kind of assay: Antifungal activity against Candida albicans.
Another assay concerns Geotrichum candidum. The assay can be described thus: Antifungal activity against Geotrichum candidum.
Assay [10] deals with Candida albicans. The assay can be described thus: Antifungal activity against Candida albicans assessed as reduction in fungal growth incubated for 48 hrs by broth micro-dilution method.
Assay [11] concerns Candida albicans. The assay can be described thus: Antifungal activity against Candida albicans assessed as diameter of zone inhibition by disc diffusion method.

Consider `COC(=O)C1C(C(=O)OC)C(C(=O)c2ccc([N+](=O)[O-])cc2)N2N=C(c3ccc(Cl)cc3)C=CC12` (stereo unspecified), for which, in the assay on Candida albicans [1], the “inhibition zone (IZ)” value was determined as 24 mm.
Regarding `CN(C)c1ccc(/C=N/c2ncnc3[nH]ccc23)cc1`, the “inhibition zone (IZ)” value amounted to 15 mm in the assay with Candida albicans [2] and 13 mm in the assay on Saccharomyces cerevisiae [3].
In the case of `Cc1nc(-c2ccc(C(C)(C)C)cc2)sc1-c1ccnc(N[C@H]2CCCC[C@@H]2N)n1`, the MIC (in general, the smallest concentration in the dilution series that meets the test's criterion for growth inhibition) in the assay with Candida albicans [4] turned out to be 4 µg/mL.
As to `CCOC(=O)C1CC(C(=O)c2ccccc2)N2N=C(c3ccc(Cl)cc3)C=CC12` (stereo unspecified), the “inhibition zone (IZ)” value with Candida albicans [1] came to 24 mm.
As to `CCc1nnc2c(Nc3ccc(C(=O)/C=C/c4ccc(C)cc4)cc3)nc3ccccc3n12`, the “inhibition zone (IZ)” value in [5] is 20 mm.
Regarding `Nc1nc(-c2ccc(F)cc2)cc(-c2cnc(Cl)cn2)n1`, the MIC in the assay on Aspergillus niger and in the assay with Candida tropicalis was 97.3 µM (≈ 29.4 µg/mL) in each case.
Regarding `CN(C)c1ccc(-c2cc(-c3cnc(Cl)cn3)nc(N)n2)cc1`, the MIC in the assay with Aspergillus niger and in the assay on Candida tropicalis was 97.3 µM (≈ 31.8 µg/mL) throughout.
Turning to `COc1cccc(/C=N/Nc2ncnc3[nH]ccc23)c1OC`, the “inhibition zone (IZ)” value in the assay with Candida albicans [6] stood at 30 mm; in the assay on Saccharomyces cerevisiae [7], 24 mm.
As for `Nc1ccc(C(=O)NNc2nc3ccccc3nc2Cl)cc1`, the MIC50 (as a rule, an inhibitory concentration at the 50% level, which refers to growth in some studies and to a panel of isolates in others) in the assay with Candida albicans [8] came out at 0.78 µg/mL (≈ 2.49 µM). Further, the MIC in the assay on Pichia kudriavzevii, with Candida parapsilosis and against Nakaseomyces glabratus was 0.78 µg/mL (≈ 2.49 µM) each time.
Compound `Cc1nc2ccccc2nc1N1CC(C(=O)O)=CC1=O` returned an MIC50 against Candida albicans [8] of 0.78 µg/mL (≈ 2.9 µM). Moreover, the MIC against Pichia kudriavzevii, against Candida parapsilosis and in the assay with Nakaseomyces glabratus was 0.78 µg/mL (≈ 2.9 µM) throughout.
As to `CCOC(=O)Cc1nc2c3[se]c4nc5c(nc4c3ncn2n1)c(C)nn5-c1ccccc1`, the MIC in the assay with Candida albicans [9] stood at 8 µg/mL (≈ 16.3 µM); in the assay on Geotrichum candidum it was 6 µg/mL (≈ 12.2 µM).
Regarding `Nc1nc(-c2ccc(O)cc2)cc(-c2cnc(Cl)cn2)n1`, the MIC with Aspergillus niger and in the assay on Candida tropicalis was 97.3 µM (≈ 29.2 µg/mL) in each case.
For `COc1ccc(/C=N/Nc2ncnc3[nH]ccc23)cc1`, the “inhibition zone (IZ)” value in the assay with Candida albicans [6] is reported as 30 mm; with Saccharomyces cerevisiae [7], 24 mm.
For `O=[N+]([O-])c1cccc(/C=N/c2ncnc3[nH]ccc23)c1`, the “inhibition zone (IZ)” value in the assay with Candida albicans [2] worked out at 15 mm; in the assay on Saccharomyces cerevisiae [3], 13 mm.
As for `COc1ccc(-c2cc(-c3cnc(Cl)cn3)nc(N)n2)c(OC)c1`, the MIC with Aspergillus niger and in the assay on Candida tropicalis was 101 µM (≈ 34.6 µg/mL) throughout.
In the case of `COc1ccc(-c2cc(-c3cnc(Cl)cn3)nc(N)n2)cc1`, the MIC with Aspergillus niger and in the assay on Candida tropicalis was 97.3 µM (≈ 30.5 µg/mL) each time.
As to `Cc1nc2ccccc2nc1NNC(=O)c1ccc(N)cc1`, the MIC50 in the assay with Candida albicans [8] worked out at 0.78 µg/mL (≈ 2.66 µM). Moreover, the MIC against Pichia kudriavzevii, in the assay on Candida parapsilosis and against Nakaseomyces glabratus was 0.78 µg/mL (≈ 2.66 µM) throughout.
Regarding `Nc1nc(-c2cccnc2)cc(-c2cnc(Cl)cn2)n1`, the MIC with Aspergillus niger and with Candida tropicalis was 110 µM (≈ 31.4 µg/mL) in each case.
On to `COc1ccc(/C=N/Nc2ncnc3[nH]ccc23)c(OC)c1`, for which the “inhibition zone (IZ)” value in the assay on Candida albicans [6] is recorded as 30 mm; with Saccharomyces cerevisiae [7] it was 24 mm.
Turning to `Brc1cc(Br)cc(/C=N/Nc2ncnc3[nH]ccc23)c1`, the “inhibition zone (IZ)” value in the assay on Candida albicans [6] and with Saccharomyces cerevisiae [7] was 21 mm in each case.
Consider `Cc1nn(-c2ccccc2)c2nc3sc4c(c3nc12)N=C(N)COC4=O`, for which, in the assay with Geotrichum candidum, the minimum inhibitory concentration (MIC) worked out at 4 µg/mL (≈ 11 µM).
Take `Cc1nc(-c2ccc(C(C)(C)C)cc2)sc1-c1ccnc(NCCCN)n1`: in the assay with Candida albicans [4], the MIC is 4 µg/mL.
`COc1nc2ccccc2nc1N1CC(C(=O)O)=CC1=O`: in the assay on Candida albicans [8], the MIC50 stood at 0.78 µg/mL (≈ 2.73 µM). The MIC in the assay on Pichia kudriavzevii, with Candida parapsilosis and against Nakaseomyces glabratus was 0.78 µg/mL (≈ 2.73 µM) in each case.
`Nc1nc(-c2ccccc2)cc(-c2cnc(Cl)cn2)n1`: the MIC in the assay with Aspergillus niger and in the assay with Candida tropicalis was 97.3 µM (≈ 27.6 µg/mL) in each case.
As for `Cc1ccc(S(=O)(=O)Nc2nc(/N=N/c3c(N)nn4c(C)cc(C)nc34)cs2)cc1`, the MIC in the assay with Candida albicans [10] came out at 50 µg/mL (≈ 113 µM).
With `CC1=N/C(=C\c2ccc(Cl)cc2)C(=O)N1c1c(N)n(C)c(=O)n(C)c1=O`, the “inhibition zone (IZ)” value in the assay with Candida albicans [2] is listed as 10 mm.
Regarding `Cc1ccc(S(=O)(=O)Nc2nc(/N=N/c3c(N)nn4c(-c5ccc([N+](=O)[O-])cc5)c(C#N)c(N)nc34)cs2)cc1`, the MIC in the assay with Candida albicans [10] is 25 µg/mL (≈ 43.4 µM).
On to `Nc1nc(Cc2ccco2)cc(-c2cnc(Cl)cn2)n1`, for which the minimum inhibitory concentration (MIC) in the assay on Aspergillus niger and in the assay on Candida tropicalis was 110 µM (≈ 31.8 µg/mL) each time.
`CCc1nnc2c(Nc3ccc(C4=NN(c5ccccc5)C(c5ccc(OC)cc5)C4)cc3)nc3ccccc3n12` (stereo unspecified): the “inhibition zone (IZ)” value in assay [5] came to 21 mm.
Turning to `Cc1ccc(S(=O)(=O)Nc2nc(/N=N/c3c(N)nn4c(-c5ccc(Cl)cc5)c(C#N)c(N)nc34)cs2)cc1`, in the assay with Candida albicans [10], the MIC was determined as 100 µg/mL (≈ 177 µM).
`Cc1ccc(S(=O)(=O)Nc2nc(/N=N/c3c(N)nn4c(N)c(C#N)nnc34)cs2)cc1`: the minimum inhibitory concentration (MIC) in the assay with Candida albicans [10] amounted to 6.25 µg/mL (≈ 13.7 µM).
As for `O=[N+]([O-])c1ccccc1/C=N/c1ncnc2[nH]ccc12`, the “inhibition zone (IZ)” value in the assay on Saccharomyces cerevisiae [3] was found to be 13 mm.
Regarding `C[C@@H]1C[C@@H]([C@H](O)CC2CC(=O)NC(=O)C2)C(=O)[C@@H](C)C1` [CYCLOHEXIMIDE], the MIC in the assay with Candida albicans [10] turned out to be 3.12 µg/mL (≈ 11.1 µM).
Turning to `CN(C)C=O` [DIMETHYLFORMAMIDE], the “inhibition zone (IZ)” value in the assay with Candida albicans [11] came out at 16 mm.
